According to BigSolDB 2.1:

NC(=O)C[C@H](N)C(=O)O.O
solubility (mole fraction)
Settings	278.15 K	283.15 K	288.15 K	293.15 K	298.15 K	303.15 K	308.15 K	313.15 K	318.15 K	323.15 K
in acetonitrile	5.98e-06	8.11e-06	1.09e-05	1.44e-05	1.89e-05	2.49e-05	3.2e-05	4.11e-05	5.24e-05	6.64e-05
in ethanol	1.32e-05	1.77e-05	2.36e-05	3.11e-05	4.06e-05	5.25e-05	6.73e-05	8.57e-05	0.000108	0.000136
in ethyl acetate	1.25e-05	1.73e-05	2.29e-05	2.99e-05	3.89e-05	5.01e-05	6.39e-05	8.21e-05	0.000102	0.000129
in isobutanol	1.11e-05	1.49e-05	1.97e-05	2.59e-05	3.38e-05	4.36e-05	5.58e-05	6.98e-05	8.97e-05	0.000114
in isopropanol	9.67e-06	1.26e-05	1.65e-05	2.22e-05	2.91e-05	3.81e-05	4.96e-05	6.19e-05	8.17e-05	0.000104
in methanol	1.54e-05	2.04e-05	2.7e-05	3.52e-05	4.56e-05	5.86e-05	7.42e-05	9.4e-05	0.000118	0.000147
in methyl acetate	1.66e-05	2.23e-05	2.91e-05	3.78e-05	4.89e-05	6.28e-05	7.98e-05	0.000101	0.000127	0.000158
in n-butanol	1.07e-05	1.43e-05	1.9e-05	2.5e-05	3.26e-05	4.2e-05	5.38e-05	6.84e-05	8.62e-05	0.000105
in n-butyl acetate	1.57e-05	2.09e-05	2.7e-05	3.49e-05	4.54e-05	5.76e-05	7.24e-05	9.16e-05	0.000114	0.000142
in n-propanol	1.07e-05	1.45e-05	1.94e-05	2.57e-05	3.37e-05	4.4e-05	5.68e-05	7.28e-05	9.28e-05	0.000117
in n-propyl acetate	1.63e-05	2.14e-05	2.81e-05	3.66e-05	4.76e-05	6.11e-05	7.78e-05	9.84e-05	0.000121	0.000154
in water	0.0014	0.00178	0.00227	0.0028	0.00344	0.00422	0.00518	0.00627	0.0076	0.00914
